# Key:
# Staphylococcus aureus [1] = test: Antimicrobial activity against Staphylococcus aureus NCTC 4163 after 18 hrs by twofold serial broth dilution method; assay type: functional; details: NCTC 4163, 18 h
# Staphylococcus aureus [2] = test: Antimicrobial activity against Staphylococcus aureus ATCC 25923 after 18 hrs by twofold serial broth dilution method; assay type: functional; details: ATCC 25923, 18 h
# [3] = tested on: Staphylococcus epidermidis; test: Antimicrobial activity against Staphylococcus epidermidis ATCC 35984 after 18 hrs by twofold serial broth dilution method; assay type: functional; details: ATCC 35984, 18 h
# [4] = tested on: Staphylococcus epidermidis; test: Bactericidal activity against Staphylococcus epidermidis ATCC 35984 after 24 hrs; assay type: functional; details: ATCC 35984, 24 h, read-out: MBC99.9
# Escherichia coli = test: Bactericidal activity against Escherichia coli ATCC 10538 after 24 hrs; assay type: functional; details: ATCC 10538, 24 h, read-out: MBC99.9
# [5] = tested on: Staphylococcus epidermidis; test: Antimicrobial activity against methicillin-resistant Staphylococcus epidermidis isolate 403/10 after 18 hrs by twofold serial broth dilution method; assay type: functional; details: isolate 403/10, 18 h
# [6] = tested on: Staphylococcus epidermidis; test: Antimicrobial activity against methicillin-resistant Staphylococcus epidermidis isolate 405/10 after 18 hrs by twofold serial broth dilution method; assay type: functional; details: isolate 405/10, 18 h
# [7] = tested on: Staphylococcus epidermidis; test: Antimicrobial activity against methicillin-resistant Staphylococcus epidermidis isolate 424/10 after 18 hrs by twofold serial broth dilution method; assay type: functional; details: isolate 424/10, 18 h
# [8] = tested on: Staphylococcus epidermidis; test: Antimicrobial activity against methicillin-resistant Staphylococcus epidermidis isolate 458/11 after 18 hrs by twofold serial broth dilution method; assay type: functional; details: isolate 458/11, 18 h
# [9] = tested on: Staphylococcus epidermidis; test: Antimicrobial activity against methicillin-resistant Staphylococcus epidermidis isolate 460/11 after 18 hrs by twofold serial broth dilution method; assay type: functional; details: isolate 460/11, 18 h
# [10] = tested on: Staphylococcus epidermidis; test: Bactericidal activity against methicillin-resistant Staphylococcus epidermidis isolate 409/10 after 24 hrs; assay type: functional; details: isolate 409/10, 24 h, read-out: MBC99.9
# [11] = tested on: Staphylococcus epidermidis; test: Bactericidal activity against methicillin-resistant Staphylococcus epidermidis isolate 422/10 after 24 hrs; assay type: functional; details: isolate 422/10, 24 h, read-out: MBC99.9
# [12] = tested on: Staphylococcus epidermidis; test: Bactericidal activity against methicillin-resistant Staphylococcus epidermidis isolate 460/11 after 24 hrs; assay type: functional; details: isolate 460/11, 24 h, read-out: MBC99.9
# [13] = tested on: Staphylococcus epidermidis; test: Bactericidal activity against methicillin-resistant Staphylococcus epidermidis isolate 470/11 after 24 hrs; assay type: functional; details: isolate 470/11, 24 h, read-out: MBC99.9
# Bacillus subtilis [14] = test: Genotoxicity in rec-positive Bacillus subtilis H17 at 2 ug/9 mm disc after 24 hrs by disc diffusion method; assay type: toxicity, organism-based
# Bacillus subtilis [15] = test: Genotoxicity in rec-negative Bacillus subtilis M45 at 2 ug/9 mm disc after 24 hrs by disc diffusion method; assay type: toxicity, organism-based
# [16] = tested on: Staphylococcus epidermidis; test: Ratio of ciprofloxacin MIC to compound MIC for methicillin-resistant Staphylococcus epidermidis clinical isolate after 18 hrs by twofold serial broth dilution method; assay type: functional
smiles,measurement,setting,value
CCCCN(CCCC)C(=O)[C@H](CC)[C@H]1CC[C@H](C)[C@H]([C@@H](C)[C@H](O)[C@H](C)C(=O)[C@H](CC)[C@H]2O[C@]3(C=C[C@@H](O)[C@]4(CC[C@@](C)([C@H]5CC[C@](O)(CC)[C@H](C)O5)O4)O3)[C@H](C)C[C@@H]2C)O1,MIC,Staphylococcus aureus [1],8 µg/mL
same,MIC,Staphylococcus aureus [2],8 µg/mL
same,MIC,[3],8 µg/mL
same,MBC,[4],> 256 µg/mL
same,MBC,Escherichia coli,> 256 µg/mL
same,MIC,[5],8 µg/mL
same,MIC,[6],4 µg/mL
same,MIC,[7],8 µg/mL
same,MIC,[8],4 µg/mL
same,MIC,[9],8 µg/mL
same,MBC,[10],> 256 µg/mL
same,MBC,[11],256 µg/mL
same,MBC,[12],> 256 µg/mL
same,MBC,[13],> 256 µg/mL
same,diameter of the inhibition zone (DIZ),Bacillus subtilis [14],29 mm
same,diameter of the inhibition zone (DIZ),Bacillus subtilis [15],30 mm
CC[C@@H](C(=O)[C@@H](C)[C@@H](O)[C@H](C)[C@@H]1O[C@@H]([C@@H](CC)C(=O)N2CCNCC2)CC[C@@H]1C)[C@H]1O[C@]2(C=C[C@@H](O)[C@]3(CC[C@@](C)([C@H]4CC[C@](O)(CC)[C@H](C)O4)O3)O2)[C@H](C)C[C@@H]1C,MIC,Staphylococcus aureus [1],128 µg/mL
same,MIC,Staphylococcus aureus [2],128 µg/mL
same,MIC,[3],128 µg/mL
same,MBC,[4],> 256 µg/mL
same,MBC,Escherichia coli,> 256 µg/mL
same,MIC,[5],128 µg/mL
same,MIC,[6],64 µg/mL
same,MIC,[7],64 µg/mL
same,MIC,[8],128 µg/mL
same,MIC,[9],128 µg/mL
same,MBC,[10],> 256 µg/mL
same,MBC,[11],> 256 µg/mL
same,MBC,[12],> 256 µg/mL
same,MBC,[13],> 256 µg/mL
same,diameter of the inhibition zone (DIZ),Bacillus subtilis [14],14 mm
same,diameter of the inhibition zone (DIZ),Bacillus subtilis [15],14 mm
CCCN(CCC)C(=O)[C@H](CC)[C@H]1CC[C@H](C)[C@H]([C@@H](C)[C@H](O)[C@H](C)C(=O)[C@H](CC)[C@H]2O[C@]3(C=C[C@@H](O)[C@]4(CC[C@@](C)([C@H]5CC[C@](O)(CC)[C@H](C)O5)O4)O3)[C@H](C)C[C@@H]2C)O1,MIC,Staphylococcus aureus [1],2 µg/mL
same,MIC,Staphylococcus aureus [2],1 µg/mL
same,MIC,[3],2 µg/mL
same,MBC,[4],256 µg/mL
same,MBC,Escherichia coli,> 256 µg/mL
same,MIC,[5],4 µg/mL
same,MIC,[6],8 µg/mL
same,MIC,[7],8 µg/mL
same,MIC,[8],8 µg/mL
same,MIC,[9],8 µg/mL
same,MBC,[10],128 µg/mL
same,MBC,[11],128 µg/mL
same,MBC,[12],256 µg/mL
same,MBC,[13],256 µg/mL
same,diameter of the inhibition zone (DIZ),Bacillus subtilis [14],28 mm
same,diameter of the inhibition zone (DIZ),Bacillus subtilis [15],26 mm
same,Ratio,[16],40
CC[C@@H](C(=O)[C@@H](C)[C@@H](O)[C@H](C)[C@@H]1O[C@@H]([C@@H](CC)C(=O)N(CC)CC)CC[C@@H]1C)[C@H]1O[C@]2(C=C[C@@H](O)[C@]3(CC[C@@](C)([C@H]4CC[C@](O)(CC)[C@H](C)O4)O3)O2)[C@H](C)C[C@@H]1C,MIC,Staphylococcus aureus [1],4 µg/mL
same,MIC,Staphylococcus aureus [2],2 µg/mL
same,MIC,[3],4 µg/mL
same,MBC,[4],128 µg/mL
same,MBC,Escherichia coli,> 256 µg/mL
same,MIC,[5],4 µg/mL
same,MIC,[6],8 µg/mL
same,MIC,[7],8 µg/mL
same,MIC,[8],4 µg/mL
same,MIC,[9],8 µg/mL
same,MBC,[10],256 µg/mL
same,MBC,[11],256 µg/mL
same,MBC,[12],256 µg/mL
same,MBC,[13],128 µg/mL
same,diameter of the inhibition zone (DIZ),Bacillus subtilis [14],26 mm
same,diameter of the inhibition zone (DIZ),Bacillus subtilis [15],26 mm
same,Ratio,[16],40
CC[C@@H](C(=O)[C@@H](C)[C@@H](O)[C@H](C)[C@@H]1O[C@@H]([C@@H](CC)C(=O)N(Cc2ccccc2)Cc2ccccc2)CC[C@@H]1C)[C@H]1O[C@]2(C=C[C@@H](O)[C@]3(CC[C@@](C)([C@H]4CC[C@](O)(CC)[C@H](C)O4)O3)O2)[C@H](C)C[C@@H]1C,MIC,Staphylococcus aureus [1],16 µg/mL
same,MIC,Staphylococcus aureus [2],8 µg/mL
same,MIC,[3],8 µg/mL
same,MBC,[4],128 µg/mL
same,MBC,Escherichia coli,> 256 µg/mL
same,MIC,[5],16 µg/mL
same,MIC,[6],8 µg/mL
same,MIC,[7],16 µg/mL
same,MIC,[8],16 µg/mL
same,MIC,[9],32 µg/mL
same,MBC,[10],256 µg/mL
same,MBC,[11],256 µg/mL
same,MBC,[12],> 256 µg/mL
same,MBC,[13],> 256 µg/mL
same,diameter of the inhibition zone (DIZ),Bacillus subtilis [14],21 mm
same,diameter of the inhibition zone (DIZ),Bacillus subtilis [15],20 mm

# From ChEMBL document CHEMBL3400015, “Tertiary amides of Salinomycin: A new group of antibacterial agents against Bacillus anthracis and methicillin-resistant Staphylococcus epidermidis” (Bioorg Med Chem Lett, 2015)
